Measured values from patent US7795226B2, “Control of radiation injury” (Biotempt B.V., priority 2006, dated 2010).
Values joined by “and” are separate entries in the source; they are usually repeats but may differ in a detail not shown here. Equal values may be shown once.

Legend:
Assay type in all cases: in vivo
[1] = system: LPS (E. coli 026:B6)-induced septic shock in BALB/c mice; experiment: LPS-induced septic shock, single dose of peptide; details: single dose 5 mg/kg
In short: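 Female BALB/c mice (8–12 weeks, SPF) received 150–300 μg LPS (E. coli 026:B6) i.p., doses set to give 80–100% mortality in 24–72 h. Peptides in PBS were given i.p. once at 5 mg/kg, 2 h or 24 h after LPS; PBS i.p. controls. Sickness scored 0–5 or dead.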

[2] = system: high dose LPS (E. coli 026:B6)-induced septic shock in BALB/c mice; experiment: high dose LPS-induced septic shock, peptide administered twice; details: peptide twice (t = 2 and 24 hours) 5 mg/kg
In short: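 Female BALB/c mice (8–12 weeks) given high-dose LPS (E. coli 026:B6) i.p., predetermined to cause 80–100% mortality in 24–72 h. Peptides in PBS at 5 mg/kg i.p. at 2 and 24 h after LPS; sickness scored 0–5 or dead.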

[3] = system: renal ischemia reperfusion in mice; experiment: mouse renal ischemia reperfusion test; design: BUN after 25 minutes renal ischemia, mean / Urea levels in dose-response experiment: unit not given here; details: 5 mg/kg i.v.
In short: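 In anesthetized mice kept at 37° C, the left renal pedicle was clamped for 25 min and the right kidney removed after reperfusion. Peptide in saline was given i.v. (5 mg/kg; other series 0.3–30 mg/kg) 5 min before clamping and 5 min before release, with PBS as control. Mortality and BUN were measured at 2, 24 and 72 h; P values were calculated by Mann-Whitney U-test.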

## VLPALPQ (septamer peptide)
[1]; LPS dose 7**
  mice scored D (dead), effect at t = 24 hours: 1
  mice scored D (dead), effect at t = 48 hours: 6
  mice with sickness score 5, effect at t = 24 hours: 5
[1]; LPS dose 7*
  mice scored D (dead), effect at t = 48 hours: 2
  mice with sickness score 3, effect at t = 24 hours: 3
  mice with sickness score 4, effect at t = 24 hours: 3
  mice with sickness score 4, effect at t = 48 hours: 2
  mice with sickness score 5, effect at t = 48 hours: 2
[1]; LPS dose 8
  mice scored D (dead), effect at t = 24 hours: 2
  mice scored D (dead), effect at t = 48 hours: 6
  mice with sickness score 2, effect at t = 24 hours: 1
  mice with sickness score 3, effect at t = 24 hours: 3
  mice with sickness score 3, effect at t = 48 hours: 1
  mice with sickness score 4, effect at t = 48 hours: 3
  mice with sickness score 5, effect at t = 24 hours: 3
  mice with sickness score 5, effect at t = 48 hours: 2
[1]; LPS dose 8, 5 mg/kg
  mice with sickness score 4, effect at t = 24 hours: 2 and 1
[1]; LPS dose 10
  mice scored D (dead), effect at t = 24 hours: 3
  mice scored D (dead), effect at t = 48 hours: 5
  mice with sickness score 3, effect at t = 24 hours: 1
  mice with sickness score 4, effect at t = 24 hours: 2
  mice with sickness score 5, effect at t = 48 hours: 1
[1]; LPS dose 10, 5 mg/kg
  mice with sickness score 5, effect at t = 24 hours: 4 and 2
[2]; LPS dose 10.5
  mice scored D (dead), effect at t = 48 hours: 2
  mice with sickness score 2, effect at t = 24 hours: 1
  mice with sickness score 2, effect at t = 48 hours: 3
  mice with sickness score 3, effect at t = 24 hours: 2
  mice with sickness score 5, effect at t = 24 hours: 2
[2]; LPS dose 11
  mice scored D (dead), effect at t = 48 hours: 2
  mice with sickness score 4, effect at t = 48 hours: 3
  mice with sickness score 5, effect at t = 24 hours: 6
  mice with sickness score 5, effect at t = 48 hours: 1
[2]; LPS dose 11, 5 mg/kg
  mice with sickness score 2, effect at t = 48 hours: 4 and 2
[3]; 2 hours after reperfusion
  BUN after 25 minutes renal ischemia, mean: 13.58
[3]; 24 hours after reperfusion
  BUN after 25 minutes renal ischemia, mean: 37.79
[3]; 72 hours after reperfusion
  BUN after 25 minutes renal ischemia, mean: 37.6375
[3]; at 72 hours post-reperfusion
  BUN concentration versus PBS (in words): did much better in terms of reduced BUN concentration
[3]; t = 0 hr (before clamping)
  BUN after 25 minutes renal ischemia, mean: 8.257
